# Reference: publication PMC11490872, “Drug-resistant menin variants retain high binding affinity and interactions with MLL1” (The Journal of Biological Chemistry, 2024)
# Changes are numbered by the printed parent chain. Where no end group is shown, it is not given here.
# Legend:
# menin^G331R = molecular target: T1, menin^G331R (Homo sapiens, UniProt O00255, G326R); assay: FP binding of fluorescein-labeled MLL1 peptides to menin^G331R; conditions: versus menin^WT, Fig. 1B (FP and ITC)
# T1 construct: The gene encoding full-length human menin was cloned into a pET32a expression vector; thioredoxin-His6 (cleaved yes); made in house; host or cells: E. coli BL21(DE3)
# T1 sequence (O00255 1-610 G326R): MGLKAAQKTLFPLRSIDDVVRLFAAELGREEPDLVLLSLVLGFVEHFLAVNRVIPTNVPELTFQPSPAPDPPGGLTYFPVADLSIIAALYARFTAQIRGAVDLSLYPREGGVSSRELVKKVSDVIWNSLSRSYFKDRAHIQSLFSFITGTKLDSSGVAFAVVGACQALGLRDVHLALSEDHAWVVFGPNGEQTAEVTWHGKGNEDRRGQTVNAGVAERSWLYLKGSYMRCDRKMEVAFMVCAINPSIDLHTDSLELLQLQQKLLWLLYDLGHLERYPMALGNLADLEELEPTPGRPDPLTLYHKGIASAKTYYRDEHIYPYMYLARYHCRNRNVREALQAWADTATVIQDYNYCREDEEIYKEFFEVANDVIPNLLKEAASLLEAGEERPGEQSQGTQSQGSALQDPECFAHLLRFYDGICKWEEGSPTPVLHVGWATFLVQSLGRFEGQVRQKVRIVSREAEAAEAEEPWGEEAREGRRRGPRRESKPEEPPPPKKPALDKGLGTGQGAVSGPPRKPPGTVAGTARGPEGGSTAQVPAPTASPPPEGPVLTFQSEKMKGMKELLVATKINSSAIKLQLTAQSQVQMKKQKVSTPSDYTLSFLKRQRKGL
# Method: (§1) FP binding experiments utilized MLL1-derived peptides, FLSN-MLL1^4-43 at 4 nM and FLSN-MLL1^4-15 at 10 nM, titrated against a range of menin concentrations in the FP buffer (50 mM Tris pH 7.5, 50 mM NaCl, 1 mM TCEP) to obtain Kd measurements. Protein-peptide complexes were incubated for 1 h before measuring the change in fluorescence polarization and anisotropy at 525 nm after excitations at 495 nm using the PHERAstar microplate reader (BMG) ([2]).
# (§2) FP competition experiments used FLSN-MLL1^4-43 at 4 nM and menin at 4 nM against varying concentrations of unlabeled MLL1 peptides in FP buffer for IC50 determination. Protein-peptide complexes were incubated for 1 h before unlabeled peptide competitors were added to ensure complete binding. Unlabeled peptide competitors were incubated with the protein-peptide complexes for 3 h before measurement using the PHERAstar microplate reader ([25]). Experiments with Revumenib were run with the same steps and conditions but used 5% DMSO in the final solution. Kd and IC50 values were calculated using GraphPad Prism 10 by plotting mP values measured for each protein/MLL1 peptide or Revumenib as a function of protein/MLL1 peptide (or Revumenib) concentration ([25]). All FP binding and competition experiments were run in triplicate.
# menin^G331D = molecular target: T2, menin^G331D (Homo sapiens, UniProt O00255, G326D); assay: FP binding of fluorescein-labeled MLL1 peptides to menin^G331D; conditions: versus menin^WT, Fig. 1B (FP and ITC)
# T2 construct: The gene encoding full-length human menin was cloned into a pET32a expression vector; thioredoxin-His6 (cleaved yes); made in house; host or cells: E. coli BL21(DE3)
# T2 sequence (O00255 1-610 G326D): T1 sequence (O00255 1-610 G326R) with R326D
# Method: as §1, §2
# [1] = test system: wild-type, M327I, T349M, and G331R menin bound to FLSN-MLL1^4-43; assay: FP competition, stated over wild-type, M327I, T349M and G331R menin; format: binding, human; conditions: versus MLL1^46
# Method: as §2
# [2] = test system: patients with MLL1-r and NPM1-mut acute leukemias; conditions: cited from earlier work
# menin = molecular target: menin; design: method as in PMID 20961854, PMID 22936661; conditions: cited from earlier work
# [3] = molecular target: MLL1 MBM1 6-13 (Homo sapiens) (UniProt Q03164); conditions: cited from earlier work
# [4] = molecular target: MLL1 MBM2 24-40 (Homo sapiens) (UniProt Q03164); conditions: cited from earlier work
# [5] = molecular target: T3, menin^G331D-FLSN-MLL1^4-43 (Homo sapiens, UniProt O00255, G326D); assay: FP competition, displacement of FLSN-MLL1^4-43 from menin^G331D; format: binding; conditions: even with increased incubation times, Fig. S6
# T3 construct: The gene encoding full-length human menin was cloned into a pET32a expression vector; thioredoxin-His6 (cleaved yes); made in house; host or cells: E. coli BL21(DE3); probe peptide from GenScript
# T3 sequence (O00255 1-610 G326D): T1 sequence (O00255 1-610 G326R) with R326D
# Method: To better understand the mechanism of MLL1 binding with menin mutants, we performed FP competition experiments using FLSN-MLL1^4-43 as a fluorescent probe for competitive displacement by MLL1 peptides ([25]). First, we tested competition with MLL1^160 and found very similar IC50 values for wild-type menin and the three mutants M327I, T349M, and G331R, ranging between 4.1 and 8 nM (Fig. 3, A and B). […] We have hypothesized that the lack of competition with MLL1 for the menin^G331D mutant might result from a much slower dissociation rate of the menin^G331D–MLL1 complex, and to evaluate this we performed time-dependent competition experiments with MLL1^160 and MLL1^46. Standard conditions in the FP assay include 3 h incubations of the menin-FLSN-MLL1^4-43 complex with competitors.
# as §2
# [6] = Phase 1/2, AML patients with KMT2A (MLL1) rearrangements and NPM1 mutations
# MLL1 MBM1 6-13 (Homo sapiens), sequence (Q03164 whole entry, looked up, tested part not stated): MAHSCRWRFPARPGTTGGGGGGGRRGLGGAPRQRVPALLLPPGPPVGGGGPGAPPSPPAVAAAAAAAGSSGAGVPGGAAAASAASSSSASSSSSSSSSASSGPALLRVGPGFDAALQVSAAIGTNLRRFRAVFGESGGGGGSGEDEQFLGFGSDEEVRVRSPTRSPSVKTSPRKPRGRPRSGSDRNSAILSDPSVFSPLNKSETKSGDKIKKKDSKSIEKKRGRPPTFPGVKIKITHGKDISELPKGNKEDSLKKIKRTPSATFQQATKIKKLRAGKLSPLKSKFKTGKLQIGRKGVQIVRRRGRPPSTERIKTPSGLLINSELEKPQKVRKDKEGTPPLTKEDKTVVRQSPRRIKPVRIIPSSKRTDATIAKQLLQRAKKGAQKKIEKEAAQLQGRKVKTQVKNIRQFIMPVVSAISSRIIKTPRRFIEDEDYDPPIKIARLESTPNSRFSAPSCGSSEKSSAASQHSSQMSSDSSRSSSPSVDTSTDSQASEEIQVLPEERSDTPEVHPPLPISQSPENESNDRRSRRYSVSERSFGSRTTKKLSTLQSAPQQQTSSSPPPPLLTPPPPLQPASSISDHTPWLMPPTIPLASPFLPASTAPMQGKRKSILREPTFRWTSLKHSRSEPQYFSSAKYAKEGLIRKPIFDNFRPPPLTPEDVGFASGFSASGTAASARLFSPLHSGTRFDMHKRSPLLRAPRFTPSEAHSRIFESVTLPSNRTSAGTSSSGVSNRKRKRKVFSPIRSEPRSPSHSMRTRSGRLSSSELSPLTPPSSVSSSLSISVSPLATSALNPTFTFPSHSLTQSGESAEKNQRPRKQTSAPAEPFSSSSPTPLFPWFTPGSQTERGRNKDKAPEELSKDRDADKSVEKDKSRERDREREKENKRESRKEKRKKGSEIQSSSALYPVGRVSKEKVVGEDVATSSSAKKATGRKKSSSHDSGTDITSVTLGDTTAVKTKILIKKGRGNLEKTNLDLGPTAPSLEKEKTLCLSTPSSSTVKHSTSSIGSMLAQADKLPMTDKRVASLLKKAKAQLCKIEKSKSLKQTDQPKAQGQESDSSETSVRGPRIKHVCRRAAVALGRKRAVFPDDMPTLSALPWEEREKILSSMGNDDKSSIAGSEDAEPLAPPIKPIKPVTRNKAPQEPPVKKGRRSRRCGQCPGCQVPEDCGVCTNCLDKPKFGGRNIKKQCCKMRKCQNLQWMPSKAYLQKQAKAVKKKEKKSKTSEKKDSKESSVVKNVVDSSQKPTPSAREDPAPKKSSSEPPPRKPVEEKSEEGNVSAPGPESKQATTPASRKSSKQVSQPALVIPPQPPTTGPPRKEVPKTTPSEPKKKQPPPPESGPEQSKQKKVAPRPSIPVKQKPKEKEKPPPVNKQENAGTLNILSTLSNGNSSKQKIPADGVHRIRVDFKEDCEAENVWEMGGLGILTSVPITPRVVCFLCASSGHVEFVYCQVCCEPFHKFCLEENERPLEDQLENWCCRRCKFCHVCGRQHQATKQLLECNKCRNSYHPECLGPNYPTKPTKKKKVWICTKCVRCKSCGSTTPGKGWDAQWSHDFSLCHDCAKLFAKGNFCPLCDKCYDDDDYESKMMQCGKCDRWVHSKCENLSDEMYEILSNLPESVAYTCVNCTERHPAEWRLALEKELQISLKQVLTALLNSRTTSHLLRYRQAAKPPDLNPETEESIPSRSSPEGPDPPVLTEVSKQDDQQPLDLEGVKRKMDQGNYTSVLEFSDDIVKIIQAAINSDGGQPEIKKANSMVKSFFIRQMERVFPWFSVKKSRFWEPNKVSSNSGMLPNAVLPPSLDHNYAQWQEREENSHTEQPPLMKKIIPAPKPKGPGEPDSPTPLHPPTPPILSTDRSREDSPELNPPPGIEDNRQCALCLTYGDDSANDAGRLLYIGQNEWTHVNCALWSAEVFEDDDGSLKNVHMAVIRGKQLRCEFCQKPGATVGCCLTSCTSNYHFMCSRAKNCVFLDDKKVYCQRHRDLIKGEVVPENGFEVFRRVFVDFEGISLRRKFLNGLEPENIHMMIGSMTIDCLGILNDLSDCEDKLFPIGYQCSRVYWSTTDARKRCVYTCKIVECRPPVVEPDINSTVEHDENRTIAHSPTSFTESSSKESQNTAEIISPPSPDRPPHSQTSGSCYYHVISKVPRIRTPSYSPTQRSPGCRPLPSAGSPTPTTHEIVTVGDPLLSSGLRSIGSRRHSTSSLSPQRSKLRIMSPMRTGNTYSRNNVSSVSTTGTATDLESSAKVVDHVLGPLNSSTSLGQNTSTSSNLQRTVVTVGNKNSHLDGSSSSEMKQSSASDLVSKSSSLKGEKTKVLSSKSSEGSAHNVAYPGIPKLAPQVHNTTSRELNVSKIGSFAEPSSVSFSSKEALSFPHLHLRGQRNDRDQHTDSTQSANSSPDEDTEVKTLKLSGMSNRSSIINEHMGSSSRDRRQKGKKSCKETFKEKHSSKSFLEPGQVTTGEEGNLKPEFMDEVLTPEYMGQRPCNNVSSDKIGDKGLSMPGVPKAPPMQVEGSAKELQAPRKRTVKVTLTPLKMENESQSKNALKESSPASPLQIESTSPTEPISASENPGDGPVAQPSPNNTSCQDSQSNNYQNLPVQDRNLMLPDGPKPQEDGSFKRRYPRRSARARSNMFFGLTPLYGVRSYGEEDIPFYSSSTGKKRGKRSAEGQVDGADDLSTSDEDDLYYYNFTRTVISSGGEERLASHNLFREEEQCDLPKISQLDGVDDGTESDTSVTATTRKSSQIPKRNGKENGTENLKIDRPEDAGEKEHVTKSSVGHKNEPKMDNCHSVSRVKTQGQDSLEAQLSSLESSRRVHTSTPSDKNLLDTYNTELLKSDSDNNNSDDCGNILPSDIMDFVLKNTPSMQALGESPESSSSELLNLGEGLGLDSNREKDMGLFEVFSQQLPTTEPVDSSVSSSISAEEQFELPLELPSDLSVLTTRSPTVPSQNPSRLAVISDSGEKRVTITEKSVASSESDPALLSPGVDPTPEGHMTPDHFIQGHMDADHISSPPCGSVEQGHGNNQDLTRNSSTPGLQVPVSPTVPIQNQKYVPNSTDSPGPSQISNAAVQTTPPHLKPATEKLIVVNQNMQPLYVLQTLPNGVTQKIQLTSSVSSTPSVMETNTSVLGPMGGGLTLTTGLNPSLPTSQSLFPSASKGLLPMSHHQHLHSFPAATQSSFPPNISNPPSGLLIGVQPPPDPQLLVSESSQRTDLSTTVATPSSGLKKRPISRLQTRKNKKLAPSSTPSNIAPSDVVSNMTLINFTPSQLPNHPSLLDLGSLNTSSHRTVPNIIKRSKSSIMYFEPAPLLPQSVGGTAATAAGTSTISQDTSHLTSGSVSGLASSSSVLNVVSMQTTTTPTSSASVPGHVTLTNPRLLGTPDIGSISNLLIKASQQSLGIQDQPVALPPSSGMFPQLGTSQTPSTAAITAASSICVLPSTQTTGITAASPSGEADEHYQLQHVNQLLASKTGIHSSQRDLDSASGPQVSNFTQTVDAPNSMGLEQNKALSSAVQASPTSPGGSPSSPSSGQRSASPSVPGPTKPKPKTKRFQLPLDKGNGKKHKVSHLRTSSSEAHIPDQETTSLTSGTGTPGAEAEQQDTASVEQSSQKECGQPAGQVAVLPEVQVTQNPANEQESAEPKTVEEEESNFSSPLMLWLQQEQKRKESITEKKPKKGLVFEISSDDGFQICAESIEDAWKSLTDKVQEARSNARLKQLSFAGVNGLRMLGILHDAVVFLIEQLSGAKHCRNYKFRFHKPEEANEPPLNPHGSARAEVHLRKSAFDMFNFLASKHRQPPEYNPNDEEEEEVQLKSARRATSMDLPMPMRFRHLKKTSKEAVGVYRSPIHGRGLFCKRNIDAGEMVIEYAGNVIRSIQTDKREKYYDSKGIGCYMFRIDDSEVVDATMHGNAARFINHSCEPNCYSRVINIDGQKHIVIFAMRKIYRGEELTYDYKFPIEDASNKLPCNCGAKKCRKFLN
molecule,measurement,setting,value
C[C@H](NC(=O)[C@@H](N)CO)C(=O)N[C@@H](CCCNC(=N)N)C(=O)N[C@@H](Cc1c[nH]c2ccccc12)C(=O)N[C@@H](CCCNC(=N)N)C(=O)N[C@@H](Cc1ccccc1)C(=O)N1CCC[C@H]1C(=O)N[C@@H](C)C(=O)N[C@@H](CCCNC(=N)N)C(=O)N1CCC[C@H]1C(=O)NCC(=O)N[C@H](C(N)=O)[C@@H](C)O [MLL1^4-15],decrease in binding affinity for G331R,menin^G331R,approximately 3 fold
same,decrease in binding affinity for G331D,menin^G331D,~10 fold
same,weaker competition activity than MLL1^46,[1],3 orders of magnitude
CNc1nc(NC2CCN(Cc3ccc4c(cc(C#N)n4C[C@H](C)N4CCN(S(C)(=O)=O)CC4)c3C)CC2)c2cc(CC(F)(F)F)sc2n1 [Ziftomenib],complete remission,[2]; [6],~35%
same,overall response rate,[2]; [6],~45%
same,rate of complete remission,"[2]; phase 1/2 first-in-human trials, MLL1-r and NPM1-mut acute leukemias",over 30%
"MBM1: menin binding motif 1, amino acid residues 6 to 13 of MLL1 (RWRFPARP; UniProt Q03164 6-13, looked up, fragment)",decrease in binding affinity for G331R,menin^G331R,3 fold
same,decrease in binding affinity for G331D,menin^G331D,10 fold
"MBM2: menin binding motif 2, residues 24 to 40 of MLL1 (RRGLGGAPRQRVPALLL; UniProt Q03164 24-40, looked up, fragment)",Kd,menin,1 µM
Menin (from UniProt O00255),Kd,[3],0.056 µM
same,Kd,[4],1 µM
"SARWRFPARPGTTGGGGGGGRRGLG-NH2 (C-terminus assumed) [MLL1^4-28, reference compound]",competition for the menin^G331D variant,[5],no significant competition
